Measurements taken from US12358885B2, “Substituted n-propylamine fused heterocyclic mescaline derivatives” (Enveric Biosciences Canada Inc., priority 2022, dated 2025).
Where two headings read alike, the source gives them in different places.

Key:
[1] = molecular target: T1, 5-HT7 receptor (Homo sapiens, UniProt P34969); assay: Eurofins Cerep competition binding assay at 5-HT7 receptor; conditions: 10 μM test ligand, [3H]LSD, recombinant receptor in HEK-293 cells; for inhibition at 10 µM: read-out: HT7, percent of control-specific binding
T1 construct: host or cells: HEK-293 cells (membrane preparation)

[2] = molecular target: T2, serotonin transporter (SERT) (Homo sapiens, UniProt P31645); assay: biochemical; type: binding; conditions: for inhibition at 10 µM: read-out: SERT, percent of control-specific binding; for SERT, percent of control-specific binding: 10 µM
T2 construct: host or cells: CHO cells (membrane preparation)

[3] = molecular target: T3, 5-HT1A receptor (Homo sapiens, UniProt P08908); assay: Eurofins Cerep competition binding assay at 5-HT1A receptor; conditions: 10 μM test ligand, [3H]8-OH-DPAT, recombinant receptor in HEK-293 cells; for inhibition at 10 µM: read-out: HT1A, percent of control-specific binding
T3 construct: purchased Perkin Elmer 6110501400UA
T3 sequence (P08908 1-422): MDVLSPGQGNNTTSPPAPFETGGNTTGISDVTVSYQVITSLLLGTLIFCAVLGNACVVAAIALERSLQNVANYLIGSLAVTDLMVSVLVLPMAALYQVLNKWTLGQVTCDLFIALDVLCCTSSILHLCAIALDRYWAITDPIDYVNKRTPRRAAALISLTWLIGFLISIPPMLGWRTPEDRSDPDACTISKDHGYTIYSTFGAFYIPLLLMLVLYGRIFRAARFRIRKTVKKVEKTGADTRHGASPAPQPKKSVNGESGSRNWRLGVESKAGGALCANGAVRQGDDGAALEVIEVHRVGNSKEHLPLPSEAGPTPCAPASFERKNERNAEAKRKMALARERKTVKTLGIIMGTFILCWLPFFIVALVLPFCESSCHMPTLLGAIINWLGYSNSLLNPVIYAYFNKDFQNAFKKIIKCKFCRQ

[4] = molecular target: T4, 5-HT2A receptor (Homo sapiens, UniProt P28223); assay: biochemical; type: binding
T4 construct: host or cells: HEK-293 cells (membrane preparation)

[5] = molecular target: T5, norepinephrine transporter (NET) (Homo sapiens, UniProt P23975); assay: Eurofins Cerep competition binding assay at norepinephrine transporter; conditions: for inhibition at 10 µM: read-out: NET, percent of control-specific binding; for NET, percent of control-specific binding: 10 μM test ligand, [3H]nisoxetine, recombinant transporter in CHO cells
T5 construct: host or cells: CHO cells (membrane preparation)

[6] = molecular target: T6, 5-HT2B receptor (Homo sapiens, UniProt P41595); assay: Eurofins Cerep competition binding assay at 5-HT2B receptor; conditions: 10 μM test ligand, [3H]mesulergine, recombinant receptor in CHO cells; for inhibition at 10 µM: read-out: HT2B, percent of control-specific binding
T6 construct: host or cells: CHO cells (membrane preparation)

[7] = molecular target: T7, D3 receptor (Homo sapiens, UniProt P35462); assay: Eurofins Cerep competition binding assay at D3 receptor; conditions: 10 μM test ligand, [3H]methylspiperone, recombinant receptor in CHO cells; for inhibition at 10 µM: read-out: D3, percent of control-specific binding
T7 construct: host or cells: CHO cells (membrane preparation)

[8] = molecular target: T8, MT1 receptor (Homo sapiens, UniProt P48039); assay: Eurofins Cerep competition binding assay at MT1 receptor; conditions: for inhibition at 10 µM: read-out: MT1, percent of control-specific binding; for MT1, percent of control-specific binding: 10 μM test ligand, [125I]2-iodomelatonin, recombinant receptor in CHO cells
T8 construct: host or cells: CHO cells (membrane preparation)

[9] = molecular target: T9, alpha2A receptor (Homo sapiens, UniProt P08913); assay: Eurofins Cerep competition binding assay at alpha2A receptor; conditions: 10 μM test ligand; [3H]RX 821002; recombinant receptor in CHO cells
T9 construct: host or cells: CHO cells (membrane preparation)
T9 sequence (P08913 1-465): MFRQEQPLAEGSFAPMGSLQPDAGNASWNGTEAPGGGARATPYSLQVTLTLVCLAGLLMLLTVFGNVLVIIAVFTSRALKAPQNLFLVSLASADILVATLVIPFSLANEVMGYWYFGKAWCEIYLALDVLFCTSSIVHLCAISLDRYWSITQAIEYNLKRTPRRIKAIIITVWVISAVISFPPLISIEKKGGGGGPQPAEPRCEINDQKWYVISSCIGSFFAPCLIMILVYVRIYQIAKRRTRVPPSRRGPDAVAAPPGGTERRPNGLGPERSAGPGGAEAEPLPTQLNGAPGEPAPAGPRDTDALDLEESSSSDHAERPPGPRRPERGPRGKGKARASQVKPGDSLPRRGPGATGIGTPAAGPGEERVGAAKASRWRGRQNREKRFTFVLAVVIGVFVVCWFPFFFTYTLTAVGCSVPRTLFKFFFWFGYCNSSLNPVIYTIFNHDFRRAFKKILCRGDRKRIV

[10] = molecular target: T10, 5-HT2C receptor (Homo sapiens, UniProt P28335); assay: Eurofins Cerep competition binding assay at 5-HT2C receptor; conditions: 10 μM test ligand, [125I](±)DOI, recombinant receptor in HEK-293 cells; for inhibition at 10 µM: read-out: HT2C, percent of control-specific binding
T10 construct: host or cells: HEK-293 cells (membrane preparation)
T10 sequence (P28335 33-458): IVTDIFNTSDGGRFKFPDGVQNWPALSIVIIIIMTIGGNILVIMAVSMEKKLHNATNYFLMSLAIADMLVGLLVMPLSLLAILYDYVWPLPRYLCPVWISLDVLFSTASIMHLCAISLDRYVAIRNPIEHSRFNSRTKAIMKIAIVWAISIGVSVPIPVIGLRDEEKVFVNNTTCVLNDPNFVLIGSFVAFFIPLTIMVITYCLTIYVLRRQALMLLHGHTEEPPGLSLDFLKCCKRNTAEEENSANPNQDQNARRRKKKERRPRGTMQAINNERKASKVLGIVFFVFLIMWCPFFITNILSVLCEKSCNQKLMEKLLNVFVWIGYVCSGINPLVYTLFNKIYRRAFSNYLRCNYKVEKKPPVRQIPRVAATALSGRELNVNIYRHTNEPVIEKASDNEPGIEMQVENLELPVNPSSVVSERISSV

[11] = molecular target: T3, 5-HT1A receptor; assay: Functional 5-HT1A receptor cAMP assay in CHO-K1/5-HT1A/Gα15 cells; type: cell-based
[12] = molecular target: T11, dopamine transporter (DAT) (Homo sapiens, UniProt Q01959); assay: Eurofins Cerep competition binding assay at dopamine transporter; conditions: for inhibition at 10 µM: read-out: DAT, percent of control-specific binding; for DAT, percent of control-specific binding: 10 μM test ligand, [3H]BTCP, recombinant transporter in CHO cells
T11 construct: host or cells: CHO cells (membrane preparation)

[13] = molecular target: T4, 5-HT2A receptor; assay: biochemical; type: binding; conditions: for inhibition at 10 µM: read-out: HT2A, percent of control-specific binding
[14] = molecular target: T3, 5-HT1A receptor; assay: 5-HT1A receptor radioligand competition assay (SPA, 8-hydroxy-DPAT [3H]); type: binding; conditions: 0.5 nM hot 8-hydroxy-DPAT, membranes containing 5-HT1A
[15] = 1 nM [3H]ketanserin, membranes containing 5-HT2A, SPA
[16] = 10 μM test molecule, [125I](±)DOI, recombinant receptor in HEK-293 cells
[17] = reduction of cAMP in cells stimulated with 4 μM forskolin, CHO-K1/5-HT1A/Gα15, read-out: 5-HT1A, EC50

T4 sequence (P28223 whole entry): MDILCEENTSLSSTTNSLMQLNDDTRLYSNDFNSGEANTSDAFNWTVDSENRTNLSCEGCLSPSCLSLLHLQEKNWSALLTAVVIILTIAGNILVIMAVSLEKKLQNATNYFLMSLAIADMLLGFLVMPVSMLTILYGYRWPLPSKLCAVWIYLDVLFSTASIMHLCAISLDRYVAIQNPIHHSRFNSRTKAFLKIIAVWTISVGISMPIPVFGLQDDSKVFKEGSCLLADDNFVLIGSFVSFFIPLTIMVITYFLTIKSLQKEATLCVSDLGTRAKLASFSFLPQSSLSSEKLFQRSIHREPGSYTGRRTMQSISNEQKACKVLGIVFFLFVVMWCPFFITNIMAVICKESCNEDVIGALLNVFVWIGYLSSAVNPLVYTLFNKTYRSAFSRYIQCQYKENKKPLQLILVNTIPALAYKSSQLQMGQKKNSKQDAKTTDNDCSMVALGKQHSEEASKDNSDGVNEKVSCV
T1 sequence (P34969 whole entry): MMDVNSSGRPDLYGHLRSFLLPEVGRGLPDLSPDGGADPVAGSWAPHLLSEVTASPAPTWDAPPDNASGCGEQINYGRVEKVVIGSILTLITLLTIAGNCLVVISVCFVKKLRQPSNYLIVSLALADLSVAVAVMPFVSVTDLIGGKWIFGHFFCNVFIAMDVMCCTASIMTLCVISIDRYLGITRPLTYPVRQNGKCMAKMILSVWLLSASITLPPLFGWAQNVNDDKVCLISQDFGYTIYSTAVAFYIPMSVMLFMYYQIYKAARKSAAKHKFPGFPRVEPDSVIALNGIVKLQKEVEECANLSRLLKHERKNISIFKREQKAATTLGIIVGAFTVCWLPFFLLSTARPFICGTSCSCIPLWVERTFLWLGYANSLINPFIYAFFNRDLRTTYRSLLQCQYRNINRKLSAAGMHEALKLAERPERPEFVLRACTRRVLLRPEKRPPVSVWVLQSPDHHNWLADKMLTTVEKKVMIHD
T8 sequence (P48039 whole entry): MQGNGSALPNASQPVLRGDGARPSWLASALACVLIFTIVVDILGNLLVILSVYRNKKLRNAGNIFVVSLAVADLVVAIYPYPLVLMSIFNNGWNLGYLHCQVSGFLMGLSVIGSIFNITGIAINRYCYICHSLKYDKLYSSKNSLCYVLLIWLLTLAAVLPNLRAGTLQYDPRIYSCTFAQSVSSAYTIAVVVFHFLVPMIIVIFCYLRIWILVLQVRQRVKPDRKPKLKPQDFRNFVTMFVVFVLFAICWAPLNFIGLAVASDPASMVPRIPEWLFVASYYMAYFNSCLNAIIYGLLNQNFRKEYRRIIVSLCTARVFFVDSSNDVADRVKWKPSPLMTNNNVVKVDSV
T6 sequence (P41595 whole entry): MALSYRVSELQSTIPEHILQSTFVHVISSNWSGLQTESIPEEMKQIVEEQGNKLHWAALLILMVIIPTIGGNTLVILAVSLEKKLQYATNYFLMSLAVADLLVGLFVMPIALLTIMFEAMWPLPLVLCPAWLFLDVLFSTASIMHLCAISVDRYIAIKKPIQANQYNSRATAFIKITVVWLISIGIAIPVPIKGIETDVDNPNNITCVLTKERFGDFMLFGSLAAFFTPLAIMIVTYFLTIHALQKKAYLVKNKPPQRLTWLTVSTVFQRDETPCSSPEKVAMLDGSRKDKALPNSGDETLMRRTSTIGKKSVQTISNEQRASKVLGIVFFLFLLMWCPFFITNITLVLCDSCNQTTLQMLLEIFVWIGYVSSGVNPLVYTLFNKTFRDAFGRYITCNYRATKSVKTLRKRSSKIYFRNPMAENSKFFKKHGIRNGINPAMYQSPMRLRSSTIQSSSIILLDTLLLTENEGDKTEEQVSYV
T7 sequence (P35462 whole entry): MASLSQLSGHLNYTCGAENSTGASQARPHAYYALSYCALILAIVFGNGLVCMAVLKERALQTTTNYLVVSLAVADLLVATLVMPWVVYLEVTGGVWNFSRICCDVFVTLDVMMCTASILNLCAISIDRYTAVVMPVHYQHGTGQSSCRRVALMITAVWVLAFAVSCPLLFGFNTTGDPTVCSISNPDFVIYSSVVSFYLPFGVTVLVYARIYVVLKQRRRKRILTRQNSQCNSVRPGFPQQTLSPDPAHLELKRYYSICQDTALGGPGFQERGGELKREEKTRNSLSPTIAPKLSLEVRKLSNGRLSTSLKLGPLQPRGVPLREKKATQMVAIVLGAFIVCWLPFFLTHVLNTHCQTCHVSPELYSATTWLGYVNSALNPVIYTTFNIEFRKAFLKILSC
T11 sequence (Q01959 whole entry): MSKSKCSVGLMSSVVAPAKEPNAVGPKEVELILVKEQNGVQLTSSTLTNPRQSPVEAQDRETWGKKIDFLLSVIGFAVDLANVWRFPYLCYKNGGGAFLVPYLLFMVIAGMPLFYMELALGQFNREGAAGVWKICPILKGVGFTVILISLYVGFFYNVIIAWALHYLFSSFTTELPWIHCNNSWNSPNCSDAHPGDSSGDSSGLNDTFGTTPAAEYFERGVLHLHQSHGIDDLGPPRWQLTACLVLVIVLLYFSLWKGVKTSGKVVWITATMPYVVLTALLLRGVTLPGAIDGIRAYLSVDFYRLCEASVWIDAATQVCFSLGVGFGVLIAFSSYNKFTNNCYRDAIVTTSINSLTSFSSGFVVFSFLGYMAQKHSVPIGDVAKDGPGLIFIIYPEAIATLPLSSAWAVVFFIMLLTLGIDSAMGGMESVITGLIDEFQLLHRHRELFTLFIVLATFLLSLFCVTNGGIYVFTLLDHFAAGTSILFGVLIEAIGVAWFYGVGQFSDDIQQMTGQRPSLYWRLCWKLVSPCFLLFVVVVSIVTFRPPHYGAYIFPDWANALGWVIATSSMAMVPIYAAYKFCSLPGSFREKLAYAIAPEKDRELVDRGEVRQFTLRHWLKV
T2 sequence (P31645 whole entry): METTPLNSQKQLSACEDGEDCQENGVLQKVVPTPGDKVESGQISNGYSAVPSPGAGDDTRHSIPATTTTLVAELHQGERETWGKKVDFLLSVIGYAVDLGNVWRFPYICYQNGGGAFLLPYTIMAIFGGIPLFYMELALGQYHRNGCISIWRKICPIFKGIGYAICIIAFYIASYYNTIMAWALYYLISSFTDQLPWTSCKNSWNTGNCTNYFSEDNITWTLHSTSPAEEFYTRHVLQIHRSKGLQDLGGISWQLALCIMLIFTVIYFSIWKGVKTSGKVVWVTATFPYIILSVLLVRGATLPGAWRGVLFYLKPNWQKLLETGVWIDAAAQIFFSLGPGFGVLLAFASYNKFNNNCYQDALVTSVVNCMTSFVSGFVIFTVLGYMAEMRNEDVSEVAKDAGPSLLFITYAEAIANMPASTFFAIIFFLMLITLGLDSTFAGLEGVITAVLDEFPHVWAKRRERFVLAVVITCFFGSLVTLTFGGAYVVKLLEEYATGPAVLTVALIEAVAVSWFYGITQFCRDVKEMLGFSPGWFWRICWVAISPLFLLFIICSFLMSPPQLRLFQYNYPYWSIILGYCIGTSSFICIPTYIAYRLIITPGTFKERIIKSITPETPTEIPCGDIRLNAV
T5 sequence (P23975 whole entry): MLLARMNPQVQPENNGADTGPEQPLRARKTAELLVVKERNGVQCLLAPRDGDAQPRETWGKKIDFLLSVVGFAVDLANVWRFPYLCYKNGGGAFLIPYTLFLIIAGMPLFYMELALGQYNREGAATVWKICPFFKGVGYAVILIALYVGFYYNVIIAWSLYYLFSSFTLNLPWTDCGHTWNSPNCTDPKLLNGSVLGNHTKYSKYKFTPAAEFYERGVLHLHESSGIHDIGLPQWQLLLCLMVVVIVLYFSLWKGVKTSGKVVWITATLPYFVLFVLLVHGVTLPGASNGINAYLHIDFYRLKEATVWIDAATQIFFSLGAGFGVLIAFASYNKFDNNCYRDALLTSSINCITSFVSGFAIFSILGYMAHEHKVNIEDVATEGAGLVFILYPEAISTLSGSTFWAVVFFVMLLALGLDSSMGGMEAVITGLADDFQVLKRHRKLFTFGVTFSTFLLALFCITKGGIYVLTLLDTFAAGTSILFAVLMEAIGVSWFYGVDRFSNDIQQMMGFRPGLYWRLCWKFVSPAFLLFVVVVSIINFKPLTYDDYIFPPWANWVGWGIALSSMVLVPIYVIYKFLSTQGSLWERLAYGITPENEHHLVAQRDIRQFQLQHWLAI

| SMILES | inhibition at 10 µM [1] [%] | inhibition at 10 µM [2] [%] | inhibition at 10 µM [3] [%] | Ki [4, 15] [µM] | inhibition at 10 µM [5] [%] | inhibition at 10 µM [6] [%] | inhibition at 10 µM [7] [%] | inhibition at 10 µM [8] [%] | α-2A, percent of control-specific binding [9] [%] | inhibition at 10 µM [10] [%] | inhibition at 10 µM [12] [%] | inhibition at 10 µM [13, 16] [%] | Ki [14] [µM] | HT7, percent of control-specific binding [1] [%] | SERT, percent of control-specific binding [2] [%] | HT1A, percent of control-specific binding [3] [%] | NET, percent of control-specific binding [5] [%] | HT2B, percent of control-specific binding [6] [%] | D3, percent of control-specific binding [7] [%] | MT1, percent of control-specific binding [8] [%] | other results |
| --- | --- | --- | --- | --- | --- | --- | --- | --- | --- | --- | --- | --- | --- | --- | --- | --- | --- | --- | --- | --- | --- |
| CCN(CC)C/C=C/c1ccc2c(c1)OCO2 [D(I)] | 18 | 70 | 49 | 21 | 17 | 58 | 21 | 10 | 34 | 33 | 39 | 32 |  |  |  |  |  |  |  |  | EC50 [11]: > 1000 µM |
| O=C(CCc1ccc2c(c1)OCO2)N1CCCC1 [F(III)] | 2 | 0 | 0 | 152 | 0 | 13 | 0 | 12 | 5 | 5 | 0 | 0 | > 1000 |  |  |  |  |  |  |  |  |
| COc1cc(CCN)c(OC)cc1Br [2C-B, reference compound] |  |  |  | 0.414 |  |  |  |  | 88 |  |  |  | 0.2 | 88 | 42 | 96 | 13 | 99 | 43 | 86 | EC50 [11, 17]: 5.95 µM; DAT, percent of control-specific binding [12]: 5%; HT2A, percent of control-specific binding [13, 16]: 98% |
| CCOc1c(OC)cc(CCN)cc1OC [escaline] |  |  |  | 61 |  |  |  |  | 45 |  |  |  | 12.4 | 16 | 0 | 44 | 6 | 81 | 0 | 0 | HT2C, percent of control-specific binding [10]: 95%; DAT, percent of control-specific binding [12]: 0%; HT2A, percent of control-specific binding [13, 16]: 84% |
| CNC(C)Cc1ccc2c(c1)OCO2 (centres unmarked) [MDMA, reference compound] |  |  |  |  |  |  |  |  | 27 |  |  |  | 11 | 58 | 46 | 68 | 3 | 85 | 18 | 1 | Ki [4]: 39.9 µM; HT2C, percent of control-specific binding [10]: 96%; EC50 [11, 17]: > 1000 µM; DAT, percent of control-specific binding [12]: 28%; HT2A, percent of control-specific binding ([13]; 10 µM): 74% |
| C/C(=C\c1ccc2c(c1)OCO2)CN1CCCC1 [B(II)] | 68 | 95 | 79 | 7 | 43 | 87 | 55 | 20 | 75 | 45 | 69 | 53 | 824 |  |  |  |  |  |  |  | EC50 [11]: 40.1 µM |
